MIC data for 36 compounds are collected here from patent US8716292B2, “Riminophenazines with 2-(heteroaryl)amino substituents and their anti-microbial activity” (priority 2010, dated 2014).

In brackets after ≈: the same amount, converted by molar mass. A value given as a limit tells only on which side of the number the result lay.

In the first assay the test system is Mycobacterium tuberculosis H37Rv strains. As to the kind of experiment: In vitro assay for antimicrobial susceptibility (microplate Alamar blue MIC). The format is cell-based. Conditions: Mycobacterium tuberculosis, H37RV, 7H9, Alamar blue, inhibition ≧90%; read-out: MIC (μg/mL) against H37Rv. For orientation: The colour change of resazurin is a common sign of viable cells or microbes.
As for `CC(C)/N=c1\cc2n(-c3ccc(Cl)cc3)c3ccccc3nc-2cc1Nc1ncccn1` [TBI-1051, 5-(4-chlorophenyl)-3-(1-methylethyl)imino-2-(pyrimidin-2-yl)amino-3,5-dihydrophenazine], the MIC amounted to 0.015 µg/mL (≈ 0.034 µM). Still for that read-out and setting: next, `CC(C)/N=c1\cc2n(-c3ccc(F)cc3)c3ccccc3nc-2cc1Nc1ncccc1[N+](=O)[O-]` [TBI-1052, 5-(4-Fluorophenyl)-3-(1-methylethyl)imino-2-(3-nitro-2-pyridyl)amino-3,5-dihydrophenazine]: 0.022 µg/mL (≈ 0.047 µM); `CC(C)/N=c1\cc2n(-c3ccc(F)cc3)c3ccccc3nc-2cc1Nc1ncccn1` [TBI-1053, 5-(4-Fluorophenyl)-3-(1-methylethyl)imino-2-(pyrimidin-2-yl)amino-3,5-dihydrophenazine]: 0.015 µg/mL (≈ 0.0353 µM). Same read-out and setting: as for `CC(C)/N=c1\cc2n(-c3ccc(F)cc3)c3ccccc3nc-2cc1Nc1ccccn1` [TBI-1054, 5-(4-Fluorophenyl)-3-(1-methylethyl)imino-2-(2-pyridyl)amino-3,5-dihydrophenazine], the figure is 0.446 µg/mL (≈ 1.05 µM).

Regarding `CC(C)/N=c1\cc2n(-c3ccc(F)cc3)c3ccccc3nc-2cc1Nc1cnccn1` [TBI-1055, 5-(4-Fluorophenyl)-3-(1-methylethyl)imino-2-(pyrazin-2-yl)amino-3,5-dihydrophenazine], the MIC was 0.022 µg/mL (≈ 0.0518 µM). On the same count and under the same terms, as for `CC(C)/N=c1\cc2n(-c3ccc(F)cc3)c3ccccc3nc-2cc1Nc1ncccc1C#N` [TBI-1057], the figure is 0.015 µg/mL (≈ 0.0334 µM). Still for that read-out and setting: next, `CC(C)/N=c1\cc2n(-c3ccc(Cl)cc3)c3ccccc3nc-2cc1Nc1ncccc1C#N` [TBI-1075, 5-(4-Chlorophenyl)-3-(1-methylethyl)imino-2-(3-cyano-2-pyridyl)amino-3,5-dihydrophenazine]: 0.016 µg/mL (≈ 0.0344 µM); `CC(C)/N=c1\cc2n(-c3ccc(Cl)cc3)c3ccccc3nc-2cc1Nc1ccccn1` [TBI-1076, 5-(4-Chlorophenyl)-3-(1-methylethyl)imino-2-(2-pyridyl)amino-3,5-dihydrophenazine]: 0.014 µg/mL (≈ 0.0318 µM); `CC(C)/N=c1\cc2n(-c3ccc(Cl)cc3)c3ccccc3nc-2cc1Nc1cnccn1` [TBI-1077]: less than 0.0075 µg/mL.

Still in this assay, the particulars now being: Mycobacterium tuberculosis, H37RV, in vitro, Mycobacterium tuberculosis H37Rv strains; read-out: MIC (μg/mL) against H37Rv.
Regarding `COC1CCC(/N=c2\cc3n(-c4ccc(F)cc4)c4ccccc4nc-3cc2Nc2cncc(C)c2)CC1` (stereo not drawn) [TBI-1026], the MIC was 0.121 µg/mL (≈ 0.238 µM). Consider `FC(F)(F)Oc1cccc(-n2c3c/c(=N\C4CCC4)c(Nc4cccnc4)cc-3nc3ccccc32)c1` [TBI-1027, 5-(3-Trifluoromethoxyphenyl)-3-cyclobutylimino-2-(3-pyridyl)amino-3,5-dihydrophenazine], for which the MIC turned out to be 0.383 µg/mL (≈ 0.764 µM). For the compound `Cc1cncc(Nc2cc3nc4ccccc4n(-c4ccc(F)cc4)c-3c/c2=N\C2CCOCC2)c1` [TBI-1028, 5-(4-Fluorophenyl)-3-(4-tetrahydropyranyl)imino-2-(5-methyl-3-pyridyl)amino-3,5-dihydrophenazine], the MIC is 0.06 µg/mL (≈ 0.125 µM).

In the case of `Cc1cncc(Nc2cc3nc4ccccc4n(-c4ccc(F)cc4)c-3c/c2=N\C2CCCCC2)c1` [TBI-1029, 5-(4-Fluorophenyl)-3-cyclohexylimino-2-(5-methyl-3-pyridyl)amino-3,5-dihydrophenazine], the MIC came out at 0.027 µg/mL (≈ 0.0565 µM).

As for `Cc1cncc(Nc2cc3nc4ccccc4n(-c4ccc(F)cc4)c-3c/c2=N\C2CC2)c1` [TBI-1030, 5-(4-Fluorophenyl)-3-cyclopropylimino-2-(5-methyl-3-pyridyl)amino-3,5-dihydrophenazine], the MIC came to 0.012 µg/mL (≈ 0.0276 µM).

In the case of `Cc1cncc(Nc2cc3nc4ccccc4n(-c4ccc(F)cc4)c-3c/c2=N\C2CCC2)c1` [TBI-1031], the MIC stood at 0.028 µg/mL (≈ 0.0623 µM). On the same count and under the same terms, as for `Cc1ncccc1Nc1cc2nc3ccccc3n(-c3cccc(OC(F)(F)F)c3)c-2c/c1=N\C(C)C` [TBI-1032, 5-(3-Trifluoromethoxyphenyl)-3-(1-methylethyl)imino-2-(2-methyl-3-pyridyl)amino-3,5-dihydrophenazine], the figure is 0.107 µg/mL (≈ 0.213 µM). Same read-out and setting: as for `COC1CCC(/N=c2\cc3n(-c4cccc(OC(F)(F)F)c4)c4ccccc4nc-3cc2Nc2cccnc2C)CC1` (stereo not drawn) [TBI-1033, 5-(3-Trifluoromethoxyphenyl)-3-(4-methoxycyclohexyl)imino-2-(2-methyl-3-pyridyl)amino-3,5-dihydrophenazine], the figure is 0.242 µg/mL (≈ 0.422 µM); as for `Cc1ncccc1Nc1cc2nc3ccccc3n(-c3cccc(OC(F)(F)F)c3)c-2c/c1=N\C1CCCCC1` [TBI-1034, 5-(3-Trifluoromethoxyphenyl)-3-cyclohexylimino-2-(2-methyl-3-pyridyl)amino-3,5-dihydrophenazine], 0.059 µg/mL (≈ 0.109 µM). Same read-out and setting: next, `Cc1ncccc1Nc1cc2nc3ccccc3n(-c3cccc(OC(F)(F)F)c3)c-2c/c1=N\C1CCOCC1` [TBI-1035, 5-(3-Trifluoromethoxyphenyl) 3-(4-tetrahydropyranyl)imino-2-(2-methyl-3-pyridyl)amino-3,5-dihydrophenazine]: 0.062 µg/mL (≈ 0.114 µM); `COc1ncccc1Nc1cc2nc3ccccc3n(-c3cccc(OC(F)(F)F)c3)c-2c/c1=N\C(C)C` [TBI-1038, 5-(3-Trifluoromethoxyphenylethylethyl)imino-2-(2-methoxy-3-pyridyl)amino-3,5-dihydrophenazine]: 0.118 µg/mL (≈ 0.227 µM). Take `COc1ncccc1Nc1cc2nc3ccccc3n(-c3cccc(OC(F)(F)F)c3)c-2c/c1=N\C1CCC(OC)CC1` (stereo not drawn) [TBI-1039, 5-(3-Trifluoromethoxyphenyl)-3-(4-methoxycyclohexyl)imino-2-(2-methoxy-3-pyridyl)amino-3,5-dihydrophenazine]: the MIC was 0.059 µg/mL (≈ 0.1 µM). For the compound `COc1ncccc1Nc1cc2nc3ccccc3n(-c3cccc(OC(F)(F)F)c3)c-2c/c1=N\C1CCCCC1` [TBI-1040, 5-(3-Trifluoromethoxyphenyl)-3-cyclohexylimino-2-(2-methoxy-3-pyridyl)amino-3,5-dihydrophenazine], the MIC worked out at 0.086 µg/mL (≈ 0.154 µM).

Turning to `COc1ncccc1Nc1cc2nc3ccccc3n(-c3cccc(OC(F)(F)F)c3)c-2c/c1=N\C1CCOCC1` [TBI-1041, 5-(3-Trifluoromethoxyphenyl)-3-(4-tetrahydropyranyl)imino-2-(2-methoxy-3-pyridyl)amino-3,5-dihydrophenazine], the MIC came to 0.115 µg/mL (≈ 0.205 µM).

Regarding `COc1ncccc1Nc1cc2nc3ccccc3n(-c3ccc(F)cc3)c-2c/c1=N\C1CCSCC1` [TBI-1042, 5-(4-Fluorophenyl)-3-(4-tetrahydrothiopyranyl)imino-2-(2-methoxy-3-pyridyl)amino-3,5-dihydrophenazine], the MIC is 0.034 µg/mL (≈ 0.0665 µM). Still for that read-out and setting: as for `Cc1ncccc1Nc1cc2nc3ccccc3n(-c3ccc(F)cc3)c-2c/c1=N\C1CCSCC1` [TBI-1043, 5-(4-Fluorophenyl)-3-(4-tetrahydrothiopyranyl)imino-2-(2-methyl-3-pyridyl)amino-3,5-dihydrophenazine], the figure is 0.021 µg/mL (≈ 0.0424 µM); as for `COc1ncccc1Nc1cc2nc3ccccc3n(-c3ccccc3OC(F)(F)F)c-2c/c1=N\C1CCC(OC)CC1` (stereo not drawn) [TBI-1044, 5-(2-Trifluoromethoxyphenyl)-3-(4-methoxycyclohexyl)imino-2-(2-methoxy-3-pyridyl)amino-3,5-dihydrophenazine], 0.25 µg/mL (≈ 0.424 µM); as for `COc1ncccc1Nc1cc2nc3ccccc3n(-c3ccccc3OC(F)(F)F)c-2c/c1=N\C1CCOCC1` [TBI-1045, 5-(2-Trifluoromethoxyphenyl)-3-(4-tetrahydropyranyl)imino-2-(2-methoxy-3-pyridyl)amino-3,5-dihydrophenazine], 0.4 µg/mL (≈ 0.712 µM). On the same count and under the same terms, next, `COc1ncccc1Nc1cc2nc3ccccc3n(-c3ccccc3OC(F)(F)F)c-2c/c1=N\C(C)C` [TBI-1046, 5-(2-Trifluoromethoxyphenyl)-3-(1-methylethyl)imino-2-(2-methoxy-3-pyridyl)amino-3,5-dihydrophenazine]: 0.44 µg/mL (≈ 0.847 µM); `COc1ncccc1Nc1cc2nc3ccccc3n(-c3ccccc3OC(F)(F)F)c-2c/c1=N\C1CCCCC1` [TBI-1047, 5-(2-Trifluoromethoxyphenyl)-3-cyclohexylimino-2-(2-methoxy-3-pyridyl)amino-3,5-dihydrophenazine]: 0.465 µg/mL (≈ 0.831 µM); `COCC(COC)/N=c1\cc2n(-c3ccc(F)cc3)c3ccccc3nc-2cc1Nc1cccnc1OC` [TBI-1048, 5-(4-Fluorophenyl)-3-(1,3-dimethoxyisopropyl)imino-2-(2-methoxy-3-pyridyl)amino-3,5-dihydrophenazine]: 0.226 µg/mL (≈ 0.44 µM).

Regarding `COCC(C/N=c1\cc2n(-c3ccc(F)cc3)c3ccccc3nc-2cc1Nc1cccnc1OC)OC` (stereo not drawn) [TBI-1049, 5-(4-Fluorophenyl)-3-(2,3-dimethoxy-1-propyl)imino-2-(2-methoxy-3-pyridyl)amino-3,5-dihydrophenazine], the MIC came to 0.162 µg/mL (≈ 0.315 µM). In the case of `COc1ncccc1Nc1cc2nc3cc(C#N)ccc3n(-c3ccc(F)cc3)c-2c/c1=N\C(C)C` [TBI-1064, 8-Cyano-5-(4-fluorophenyl)-3-(1-methylethyl)imino-2-(2-methoxy-3-pyridyl)amino-3,5-dihydrophenazine], the MIC was found to be 0.24 µg/mL (≈ 0.502 µM).

For `COc1ncccc1Nc1cc2nc3cc(C#N)ccc3n(-c3ccc(F)cc3)c-2c/c1=N\C1CCC(OC)CC1` (stereo not drawn) [TBI-1065, 8-Cyano-5-(4-fluorophenyl)-3-(4-methyoxycyclohexyl)imino-2-(2-methoxy-3-pyridyl)amino-3,5-dihydrophenazine], the MIC was more than 16 µg/mL.

Turning to `COc1ncccc1Nc1cc2nc3cc(C#N)ccc3n(-c3ccc(F)cc3)c-2c/c1=N\C1CCOCC1` [TBI-1066, 8-Cyano-5-(4-fluorophenyl)-3-(4-tetrahydropyranyl)imino-2-(2-methoxy-3-pyridyl)amino-3,5-dihydrophenazine], the MIC is more than 6.64 µg/mL.

Take `Cc1ccc(Nc2cc3nc4cc(C#N)ccc4n(-c4ccc(F)cc4)c-3c/c2=N\C(C)C)cn1` [TBI-1067, 8-Cyano-5-(4-fluorophenyl)-3-(1-methylethyl)imino-2-(6-methyl-3-pyridyl)amino-3,5-dihydrophenazine]: the MIC was 0.117 µg/mL (≈ 0.253 µM). The same measure, in the same setting: as for `COC1CCC(/N=c2\cc3n(-c4ccc(F)cc4)c4ccc(C#N)cc4nc-3cc2Nc2ccc(C)nc2)CC1` (stereo not drawn) [TBI-1068, 8-Cyano-5-(4-fluorophenyl)-3-(4-methyoxycyclohexyl)imino-2-(6-methyl-3-pyridyl)amino-3,5-dihydrophenazine], the figure is 0.165 µg/mL (≈ 0.31 µM).
